This note sets out measurements from publication PMC2606048 (Bioorganic & medicinal chemistry letters, 2008).

Test [1] deals with L1210, FM3A, Molt/4 and CEM cells. In words: Antiproliferative activity summarised over the panel of four cancer cell lines. The test is classed as cell-based, murine and human. To be noted: for Antiproliferative activity (in words): four cell lines; for IC50: read-out: IC50 (span over the four cell lines).
In the next test the test system is tubulin. The test is described as follows: Inhibition of tubulin polymerization. To be noted: read-out: Tubulin assembly IC50 ± SD; Tubulin was at 10 μM.
Test [2] has as its system human T-lymphocyte CEM cells. The test is described as follows: Inhibition of proliferation of human T-lymphocyte CEM cells. The test is classed as cell-based.
The test system of test [3] is K562 (human chronic myelogenous leukemia) cells. The test is described as follows: K562 cell growth inhibition after 24 h. The note with it: read-out: IC50 determined for 24 h of growth. The test is classed as cell-based.
For test [4] the test system is unchanged. The test is described as follows: Flow cytometric analysis of cell cycle distribution in K562 cells. In kind it is cell-based. To be noted: 24 h, compound at its 24 h IC50, propidium iodide. Background: A flow cytometer gives signals particle by particle.
In test [5] the test system is murine leukemia (L1210) cells. The test is described as follows: Inhibition of proliferation of murine leukemia. In kind it is cell-based.
In test [6] the test system is human T-lymphocyte Molt4/C8 cells. In words: Inhibition of proliferation of human T-lymphocyte Molt4/C8 cells. In kind it is cell-based.
Test [7] relates to murine mammary carcinoma (FM3A) cells. The test is described as follows: Inhibition of proliferation of murine mammary carcinoma. The test is classed as cell-based.

Read-outs that look alike come from different tables or passages of the source.

Regarding `COc1cc(C(=O)c2c(N)sc3c2CCN(C(=O)NC(C)C)C3)cc(OC)c1OC` [Compound 4m], the “Antiproliferative activity (in words)” value in test [1] is “inactive”.

Take `COc1cc(C(=O)c2c(N)sc3ccccc23)cc(OC)c1OC` [Compound 2a, reference compound]: the IC50 with tubulin was 1.9 ± 0.1 µM.

`COc1cc(C(=O)c2c(N)sc3c2CCN(C(=S)NC2CCCCC2)C3)cc(OC)c1OC` [Compound 4w]: the half-maximal inhibitory concentration (IC50) in test [1] lay in the range of 0.73 to 1.1 µM.

As to `CNC(=S)N1CCc2c(sc(N)c2C(=O)c2cc(OC)c(OC)c(OC)c2)C1` [Compound 4s], in test [1], the IC50 lay within 1.6 to 4.9 µM.

On to `COc1cc(C(=O)c2c(N)sc3c2CCN(C(C)=O)C3)cc(OC)c1OC` [Compound 4e], for which, in test [1], the IC50 was 1.1 to 3.9 µM.

Regarding `COc1cc(C(=O)c2c(N)sc3cnccc23)cc(OC)c1OC` [Compound 5, 2-amino-3-(3′,4′,5′-trim-ethoxybenzoyl)thieno[2,3-c]pyridine], the “fold less potent than 2a” value in test [2] was determined as 13 fold. Besides, the IC50 turned out to be 0.5 µM in test [3] (Homo sapiens, K562, 24 h) and 5.4 ± 0.4 µM in the test on tubulin. Also, the “Effect on cell cycle distribution” value in test [4] was “marked increase in the percentage of cells blocked in the G2-M phase”.

`CCOC(=O)N1CCc2c(sc(N)c2C(=O)c2cc(OC)c(OC)c(OC)c2)C1` [Compound 4g]: the IC50 in test [3] (Homo sapiens, K562, 24 h) is 0.08 µM; in test [1], 0.057 to 0.44 µM. For the same molecule, the “Effect on cell cycle distribution” value in test [4] is recorded as “marked increase in the percentage of cells blocked in the G2-M phase”.

As for `COc1cc(C(=O)c2c(N)sc3c2CCN(C(=S)NC(C)C)C3)cc(OC)c1OC` [Compound 4u], in test [1], the “Antiproliferative activity (in words)” value was “inactive”.

As for `COc1cc(C(=O)c2c(N)sc3c2CCN(Cc2ccccc2)C3)cc(OC)c1OC` [Compound 4d], the IC50 in test [1] was over 10 µM.

For the molecule `COc1cc(C(=O)c2c(N)sc3c2CCN(C)C3)cc(OC)c1OC` [Compound 4a], in test [1], the IC50 is over 10 µM.

Consider `CCCN1CCc2c(sc(N)c2C(=O)c2cc(OC)c(OC)c(OC)c2)C1` [Compound 4c], for which the IC50 in test [1] was over 10 µM.

Turning to “2-amino-3-(3,4,5-trimethoxybenzoyl)-6-methoxycarbonyl-4,5,6,7-tetrahydrothieno[b]pyridine [Compound 4f]”, the “fold more potent than 4g” value is on record as 4 fold in test [5] (L1210 cells), 6 fold in test [6] (Molt4 cells) and 5 fold in test [2]. Moreover, the IC50 worked out at 0.07 µM in test [3] (K562 cells, 24 h) and 0.6 ± 0.02 µM in the test on tubulin. Besides, the “Effect on cell cycle distribution” value in test [4] was “marked increase in the percentage of cells blocked in the G2-M phase”.

With `COc1ccc(/C=C\c2cc(OC)c(OC)c(OC)c2)cc1O` [CA-4 (1), combretastatin A-4, reference compound], in test [5] (Mus musculus, L1210, read-out: IC50 L1210), the concentration for half-maximal inhibition (IC50) was 0.0028 ± 0.0011 µM.

With `CCN1CCc2c(sc(N)c2C(=O)c2cc(OC)c(OC)c(OC)c2)C1` [Compound 4b], the IC50 in test [1] was 1.7 to 2.1 µM.

For the molecule `CCNC(=S)N1CCc2c(sc(N)c2C(=O)c2cc(OC)c(OC)c(OC)c2)C1` [Compound 4t], the IC50 in test [1] lay within 4.8 to 6.9 µM.

Turning to `CCCOC(=O)N1CCc2c(sc(N)c2C(=O)c2cc(OC)c(OC)c(OC)c2)C1` [Compound 4h], the “fold reduction in activity on lengthening the alkyl chain (vs 4g)” value was 10 fold in test [5] (L1210 cells), 25 fold in test [7], 1.5 fold in test [6] (Molt-4 cells) and 3 fold in test [2].

By IC50 is commonly meant the concentration that gives 50% inhibition.
